This assay deals with Streptomyces pyogenes. The experiment in a line: antimicrobial test in nutrient broth, minimum concentration (MIC) at which growth failed to occur. The class given is cell-based. The following applies: standardized conditions, read-out: In vitro MIC.

Converted amounts (≈) assume the structure as drawn.

One may read the MIC as the lowest concentration that inhibits growth of the organism. As to `CC1=C(c2nn[nH]n2)N2C(=O)C(NC(=O)Cn3cnnn3)C2SC1` (centres unmarked), the MIC was found to be 6.2 µg/mL (≈ 17.8 µM). To `Cn1nnnc1SCC1=C(c2nn[nH]n2)N2C(=O)C(NC(=O)Cc3cccs3)C2SC1` (centres unmarked) belongs 0.1 µg/mL (≈ 0.21 µM); to `Cn1nnnc1SCC1=C(c2nn[nH]n2)N2C(=O)C(NC(=O)[C@H](O)c3ccccc3)C2SC1` (stereo partly drawn) [7-D-(α-Hydroxy-α-phenylacetamido)-3-(1-methyltetrazol-5-ylthiomethyl)-4-(tetrazol-5-yl)-Δ^3-cephem], 3.12 µg/mL (≈ 6.41 µM).

Turning to `CC1=C(c2nn[nH]n2)N2C(=O)C(NC(=O)Cc3ccccc3)C2SC1` (centres unmarked) [C6H5CH2--, A = H, 7-Phenylacetamido-3-methyl-4-(tetrazol-5-yl)-Δ^3-cephem], the MIC stood at 0.78 µg/mL (≈ 2.19 µM). As to `CC1=C(c2nn[nH]n2)N2C(=O)C(NC(=O)C(N=[N+]=[N-])c3ccccc3)C2SC1` (centres unmarked) [C6H5CH(N3)--, A = H], the minimal inhibitory concentration (MIC) came to 1.5 µg/mL (≈ 3.77 µM). Consider `CC1=C(c2nn[nH]n2)N2C(=O)C(NC(=O)COc3ccccc3)C2SC1` (centres unmarked) [C6H5OCH2--, A = H, 7-Phenoxyacetamido-3-methyl-4-(tetrazol-5-yl)-Δ^3-cephem], for which the minimal inhibitory concentration (MIC) came to 3.1 µg/mL (≈ 8.32 µM). To `CC1=C(c2nn[nH]n2)N2C(=O)C(NC(=O)[C@H](N)c3ccc(O)cc3)C2SC1` (stereo partly drawn) [D--4-HOC6H4CH(NH2)--, A = H, 7-[D-α-Amino-α-(p-hydroxyphenyl)acetamido]-3-methyl-4-(tetrazol-5-yl)-Δ^3-cephem] belongs 1.5 µg/mL (≈ 3.87 µM).

For the compound `CC1=C(c2nn[nH]n2)N2C(=O)C(NC(=O)[C@H](O)c3ccccc3)C2SC1` (stereo partly drawn) [D--C6H5CH(OH)--, A = H, 7-(D-α-Hydroxyphenylacetamido)-3-methyl-4-(tetrazol-5-yl)-Δ^3-cephem], the minimal inhibitory concentration (MIC) stood at 1.5 µg/mL (≈ 4.03 µM). The same measure for `CC1=C(c2nn[nH]n2)N2C(=O)C(NC(=O)CSc3nnc(C)s3)C2SC1` (centres unmarked) [R1 not printed, A = H]: 0.78 µg/mL (≈ 1.9 µM). The same measure for `CC1=C(c2nn[nH]n2)N2C(=O)C(NC(=O)Cc3cccs3)C2SC1` (centres unmarked) [R1 not printed, A = H]: 0.4 µg/mL (≈ 1.1 µM); for `CC(=O)OCC1=C(c2nn[nH]n2)N2C(=O)C(NC(=O)Cc3cccs3)C2SC1` (centres unmarked) [R1 not printed, A = OCOCH3]: 1.6 µg/mL (≈ 3.81 µM).

The values above are taken from patent US3966719A, “4-(Tetrazol-5-yl)-Δ^3 -cephem compounds” (Pfizer Inc., priority 1974, dated 1976).
